# Laboratory results from article PMC5734772, “Characterization of CobB kinetics and inhibition by nicotinamide” (PLoS ONE, 2017).
# T1: CobB (Escherichia coli, UniProt P75960)
# T1 construct: recombinant CobB, MBP tag cleaved
# T1 sequence (P75960 1-279): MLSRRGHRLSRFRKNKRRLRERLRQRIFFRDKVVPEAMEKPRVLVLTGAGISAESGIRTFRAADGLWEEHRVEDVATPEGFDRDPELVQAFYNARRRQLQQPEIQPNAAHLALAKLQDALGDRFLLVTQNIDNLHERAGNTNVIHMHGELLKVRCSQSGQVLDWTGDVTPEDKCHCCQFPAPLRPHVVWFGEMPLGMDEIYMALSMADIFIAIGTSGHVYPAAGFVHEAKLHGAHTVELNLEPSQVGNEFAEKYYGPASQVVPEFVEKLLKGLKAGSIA
# B1: nicotinamidase (PncA) (Escherichia coli K-12) (protein)
# chain: MPPRALLLVDLQNDFCAGGALAVPEGDSTVDVANRLIDWCQSRGEAVIASQDWHPANHGSFASQHGVEPYTPGQLDGLPQTFWPDHCVQNSEGAQLHPLLHQKAIAAVFHKGENPLVDSYSAFFDNGRRQKTSLDDWLRDHEIDELIVMGLATDYCVKFTVLDALQLGYKVNVITDGCRGVNIQPQDSAHAFMEMSAAGATLYTLADWEETQG
# notes: recombinant His6-tagged nicotinamidase
# Legend:
# nicotinamidase (PncA) = target: T2, nicotinamidase (PncA) (Escherichia coli, UniProt P21369); experiment: activity of purified PncA after […] min incubation with […] inhibitor at […]°C; activity undetectable; format: biochemical
# T2 construct: recombinant His6-tagged nicotinamidase
# CobB = target: T1, CobB; experiment: deacetylation of acetylated Acs by purified CobB at varied NAM and NAD+; Dixon and double-reciprocal plots (Ki approximately […]); format: biochemical
# purified protein = substrate: NC(=O)c1cccnc1; experiment: purified protein; format: biochemical, Escherichia coli
Molecule,activity of purified PncA after 10 min incubation with 1 mM inhibitor at 37°C; a (nicotinamidase (PncA)),also measured
N#Cc1cccnc1 [3-pyridinecarbonitrile],This result confirms PncA inhibition by 3-pyridinecarbonitrile and 3-pyridinecarboxaldehide in vitro.,
NC(=O)c1cccnc1 [nicotinamide],,IC50 (CobB): ~52 µM
O=Cc1cccnc1 [3-pyridinecarboxaldehide],This result confirms PncA inhibition by 3-pyridinecarbonitrile and 3-pyridinecarboxaldehide in vitro.,
B1,,Km (purified protein): 175 ± 27 µM
